What was measured:
Format in all cases: in vivo
[1] = test system: winter barley (Hordeum vulgare); assay: Test B postemergence plant response; details: for Plant response rating, Barley: Postemergence, scale 0 to 100, 0 no effect, 100 complete control
Summary of the method: (§1)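 Following treatment of plants 2 to 18 cm high after emergence, pots were held under glass for 13 to 15 days; efficacy was then graded visually, 100 denoting complete control and a dash no test result.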

[2] = test system: windgrass (Apera spica-venti); assay: Test B postemergence plant response; details: for Windgrass plant response rating: 8 g ai/ha, postemergence, 0-100 scale; for Plant response rating, Windgrass: Postemergence
Summary of the method: as §1

[3] = test system: chickweed (Stellaria media); assay: Test B postemergence plant response; details: for Chickweed plant response rating: 8 g ai/ha, postemergence, 0-100 scale; for Plant response rating, Chickweed: Postemergence
Summary of the method: as §1

[4] = test system: canarygrass (Phalaris minor); assay: Test B postemergence plant response; details: for Plant response rating, Canarygrass: Postemergence
Summary of the method: as §1

[5] = test system: winter barley (Hordeum vulgare); assay: Test C pre-/postemergence plant response; details: Preemergence
Text: (§2) Seeds of plant species selected from annual bluegrass (Poa annua), blackgrass (Alopecurus myosuroides), canola (Brassica rapa), downy bromegrass (Bromus tectorum), green foxtail (Setaria viridis), Italian ryegrass (Lolium multiflorum), canarygrass (Phalaris minor), pigweed (Amaranthus retroflexus), spring barley (Hordeum vulgare), spring wheat (Triticum aestivum), wild mustard (Sinapis arvensis), wild oat (Avena fatua), windgrass (Apera spica-venti), winter barley (Hordeum vulgare), and winter wheat (Triticum aestivum) were planted and treated preemergence with test chemicals formulated in a non-phytotoxic solvent mixture which included a surfactant. At the same time, plants selected from these crop and weed species were treated with postemergence applications of some of the test chemicals formulated in the same manner. Plants ranged in height from 2 to 18 cm (1- to 4-leaf stage) for postemergence treatments.
(§3) Treated plants and controls were maintained in a controlled growth environment for 15 to 25 days after which time all species were compared to controls and visually evaluated. Plant response ratings, summarized in Table C, are based on a scale of 0 to 100 where 0 is no effect and 100 is complete control. A dash (-) response means no test result.

[6] = test system: annual bluegrass (Poa annua); assay: Test C pre-/postemergence plant response; details: Preemergence
Text: as §2, §3

[7] = test system: spring wheat (Triticum aestivum); assay: Test C pre-/postemergence plant response; details: Preemergence
Text: as §2, §3

[8] = test system: Italian ryegrass (Lolium multiflorum); assay: Test C pre-/postemergence plant response; details: Preemergence
Text: as §2, §3

[9] = test system: wild oat (Avena fatua); assay: Test C pre-/postemergence plant response; details: Preemergence
Text: as §2, §3

[10] = test system: wild mustard (Sinapis arvensis); assay: Test C pre-/postemergence plant response; details: Preemergence
Text: as §2, §3

[11] = test system: windgrass (Apera spica-venti); assay: Test C pre-/postemergence plant response; details: Preemergence
Text: as §2, §3

[12] = test system: green foxtail (Setaria viridis); assay: Test C pre-/postemergence plant response; details: Preemergence
Text: as §2, §3

[13] = test system: pigweed (Amaranthus retroflexus); assay: Test C pre-/postemergence plant response; details: Preemergence
Text: as §2, §3

[14] = test system: winter wheat (Triticum aestivum); assay: Test C pre-/postemergence plant response; details: Preemergence
Text: as §2, §3

[15] = test system: downy bromegrass (Bromus tectorum); assay: Test C pre-/postemergence plant response; details: Preemergence
Text: as §2, §3

[16] = test system: blackgrass (Alopecurus myosuroides); assay: Test C pre-/postemergence plant response; details: Preemergence
Text: as §2, §3

[17] = test system: canarygrass (Phalaris minor); assay: Test C pre-/postemergence plant response; details: Preemergence
Text: as §2, §3

[18] = 62 g ai/ha, scale 0 to 100, 0 no effect, 100 complete control
[19] = 31 g ai/ha, scale 0 to 100, 0 no effect, 100 complete control
[20] = 8 g ai/ha, scale 0 to 100 (0 no effect, 100 complete control)
[21] = 16 g ai/ha, scale 0 to 100 (0 no effect, 100 complete control)
[22] = 31 g ai/ha, scale 0 to 100 (0 no effect, 100 complete control)
[23] = 8 g ai/ha, postemergence, 0-100 scale

`CCc1cc(-c2ccc(Cl)cc2)nn1-c1c(OC(=O)OC(C)C)cnn(C)c1=O` [Compound 41] was tested, and the “Plant response rating, Barley” value ([1]; 16 g ai/ha) was 0, the “Plant response rating, Barley” value ([1]; 31 g ai/ha) was 0 and the “Plant response rating, Barley” value ([1]; 62 g ai/ha) was 0. For the same compound, the “Windgrass plant response rating” value [2] was 30, the “Plant response rating, Windgrass” value ([2]; 16 g ai/ha, scale 0 to 100) was 60 and the “Plant response rating, Windgrass” value [2, 18] was 85. The “Chickweed plant response rating” value [3] was 0, the “Plant response rating, Chickweed” value ([3]; 16 g ai/ha, scale 0 to 100) was 0 and the “Plant response rating, Chickweed” value [3, 19] was 0. For the same compound, the “Plant response rating, Chickweed” value [3, 18] was 0, the “Plant response rating, Canarygrass” value ([4]; 16 g ai/ha, scale 0 to 100) was 0 and the “Plant response rating, Canarygrass” value [4, 19] was 0. For the same compound, the “Plant response rating, Canarygrass” value [4, 18] was 0, the “Plant response rating, Barley, Winter” value [5, 20] was 10 and the “Plant response rating, Barley, Winter” value [5, 21] was 25. The “Plant response rating, Barley, Winter” value [5, 22] was 70, the “Plant response rating, Barley, Winter” value [5, 18] was 80 and the “Plant response rating, Bluegrass” value [6, 20] was 0. For the same compound, the “Plant response rating, Bluegrass” value [6, 21] was 0, the “Plant response rating, Wheat, Spring” value [7, 20] was 0 and the “Plant response rating, Wheat, Spring” value [7, 21] was 50. The “Plant response rating, Wheat, Spring” value [7, 22] was 75, the “Plant response rating, Wheat, Spring” value [7, 18] was 95 and the “Plant response rating, Ryegrass, Italian” value [8, 20] was 100. For the same compound, the “Plant response rating, Ryegrass, Italian” value [8, 21] was 100, the “Plant response rating, Ryegrass, Italian” value [8, 22] was 100 and the “Plant response rating, Ryegrass, Italian” value [8, 18] was 100. For the same compound, the “Plant response rating, Oat, Wild” value [9, 20] was 65, the “Plant response rating, Oat, Wild” value [9, 21] was 75 and the “Plant response rating, Oat, Wild” value [9, 22] was 95. The “Plant response rating, Oat, Wild” value [9, 18] was 95, the “Plant response rating, Mustard, Wild” value [10, 20] was 0 and the “Plant response rating, Mustard, Wild” value [10, 22] was 0. The “Plant response rating, Mustard, Wild” value [10, 18] was 0, the “Plant response rating, Windgrass” value [11, 20] was 65 and the “Plant response rating, Windgrass” value [11, 21] was 98. For the same compound, the “Plant response rating, Windgrass” value [11, 22] was 100, the “Plant response rating, Windgrass” value [11, 18] was 100 and the “Plant response rating, Foxtail, Green” value [12, 20] was 98. For the same compound, the “Plant response rating, Foxtail, Green” value [12, 21] was 100, the “Plant response rating, Foxtail, Green” value [12, 22] was 100 and the “Plant response rating, Foxtail, Green” value [12, 18] was 100. For the same compound, the “Plant response rating, Pigweed” value [13, 20] was 0, the “Plant response rating, Pigweed” value [13, 21] was 0 and the “Plant response rating, Pigweed” value [13, 22] was 0. For the same compound, the “Plant response rating, Pigweed” value [13, 18] was 0, the “Plant response rating, Wheat, Winter” value [14, 20] was 0 and the “Plant response rating, Wheat, Winter” value [14, 21] was 40. For the same compound, the “Plant response rating, Wheat, Winter” value [14, 22] was 60, the “Plant response rating, Wheat, Winter” value [14, 18] was 98 and the “Plant response rating, Bromegrass, Downy” value [15, 20] was 0. For the same compound, the “Plant response rating, Bromegrass, Downy” value [15, 21] was 50, the “Plant response rating, Bromegrass, Downy” value [15, 22] was 50 and the “Plant response rating, Bromegrass, Downy” value [15, 18] was 80. The “Plant response rating, Blackgrass” value [16, 20] was 100, the “Plant response rating, Blackgrass” value [16, 21] was 100 and the “Plant response rating, Blackgrass” value [16, 22] was 100. The “Plant response rating, Blackgrass” value [16, 18] was 100, the “Plant response rating, Canarygrass” value [17, 20] was 50 and the “Plant response rating, Canarygrass” value [17, 21] was 80. The “Plant response rating, Canarygrass” value [17, 22] was 98 and the “Plant response rating, Canarygrass” value [17, 18] was 100.

`Cn1ncc(O)c(-c2nn(-c3ccc(Cl)cc3)cc2Cl)c1=O` [Compound 28] was tested, and the “Barley plant response rating” value [1, 23] was 0, the “Plant response rating, Barley” value ([1]; 16 g ai/ha) was 0 and the “Plant response rating, Barley” value ([1]; 31 g ai/ha) was 50. For the same compound, the “Windgrass plant response rating” value [2] was 0, the “Plant response rating, Windgrass” value ([2]; 16 g ai/ha, scale 0 to 100) was 35 and the “Plant response rating, Windgrass” value [2, 18] was 85. For the same compound, the “Chickweed plant response rating” value [3] was 0, the “Plant response rating, Chickweed” value ([3]; 16 g ai/ha, scale 0 to 100) was 0 and the “Plant response rating, Chickweed” value [3, 19] was 0. For the same compound, the “Plant response rating, Chickweed” value [3, 18] was 0, the “Canarygrass plant response rating” value [4, 23] was 0 and the “Plant response rating, Canarygrass” value ([4]; 16 g ai/ha, scale 0 to 100) was 0. For the same compound, the “Plant response rating, Canarygrass” value [4, 19] was 50, the “Plant response rating, Barley, Winter” value [5, 20] was 0 and the “Plant response rating, Barley, Winter” value [5, 21] was 0. The “Plant response rating, Barley, Winter” value [5, 22] was 0, the “Plant response rating, Barley, Winter” value [5, 18] was 40 and the “Plant response rating, Bluegrass” value [6, 20] was 0. The “Plant response rating, Bluegrass” value [6, 21] was 0, the “Plant response rating, Bluegrass” value [6, 18] was 50 and the “Plant response rating, Wheat, Spring” value [7, 20] was 0. For the same compound, the “Plant response rating, Wheat, Spring” value [7, 21] was 0, the “Plant response rating, Wheat, Spring” value [7, 22] was 35 and the “Plant response rating, Wheat, Spring” value [7, 18] was 50. The “Plant response rating, Ryegrass, Italian” value [8, 20] was 0, the “Plant response rating, Ryegrass, Italian” value [8, 21] was 15 and the “Plant response rating, Ryegrass, Italian” value [8, 22] was 90. For the same compound, the “Plant response rating, Ryegrass, Italian” value [8, 18] was 95, the “Plant response rating, Oat, Wild” value [9, 20] was 0 and the “Plant response rating, Oat, Wild” value [9, 21] was 0. For the same compound, the “Plant response rating, Oat, Wild” value [9, 22] was 20, the “Plant response rating, Oat, Wild” value [9, 18] was 75 and the “Plant response rating, Mustard, Wild” value [10, 20] was 0. The “Plant response rating, Mustard, Wild” value [10, 21] was 0, the “Plant response rating, Mustard, Wild” value [10, 22] was 0 and the “Plant response rating, Mustard, Wild” value [10, 18] was 0. For the same compound, the “Plant response rating, Windgrass” value [11, 20] was 20, the “Plant response rating, Windgrass” value [11, 21] was 30 and the “Plant response rating, Windgrass” value [11, 22] was 75. For the same compound, the “Plant response rating, Windgrass” value [11, 18] was 85, the “Plant response rating, Foxtail, Green” value [12, 20] was 0 and the “Plant response rating, Foxtail, Green” value [12, 21] was 20. The “Plant response rating, Foxtail, Green” value [12, 22] was 100, the “Plant response rating, Foxtail, Green” value [12, 18] was 100 and the “Plant response rating, Pigweed” value [13, 20] was 0. For the same compound, the “Plant response rating, Pigweed” value [13, 21] was 0, the “Plant response rating, Pigweed” value [13, 22] was 0 and the “Plant response rating, Pigweed” value [13, 18] was 0. The “Plant response rating, Wheat, Winter” value [14, 20] was 0, the “Plant response rating, Wheat, Winter” value [14, 21] was 10 and the “Plant response rating, Wheat, Winter” value [14, 22] was 30. The “Plant response rating, Wheat, Winter” value [14, 18] was 60, the “Plant response rating, Bromegrass, Downy” value [15, 20] was 0 and the “Plant response rating, Bromegrass, Downy” value [15, 21] was 0. For the same compound, the “Plant response rating, Bromegrass, Downy” value [15, 22] was 20, the “Plant response rating, Bromegrass, Downy” value [15, 18] was 75 and the “Plant response rating, Blackgrass” value [16, 20] was 0. For the same compound, the “Plant response rating, Blackgrass” value [16, 21] was 5, the “Plant response rating, Blackgrass” value [16, 22] was 15 and the “Plant response rating, Blackgrass” value [16, 18] was 85. The “Plant response rating, Canarygrass” value [17, 20] was 0, the “Plant response rating, Canarygrass” value [17, 21] was 0 and the “Plant response rating, Canarygrass” value [17, 22] was 10. For the same compound, the “Plant response rating, Canarygrass” value [17, 18] was 90.
